Patent publication US7851474B2, “Dipiperazinyl ketones and related analogues” (Neurogen Corporation, priority 2005, dated 2010)
pKi: −log10 of the molar value.

Each compound was assayed against T1, chimeric human H3 receptor (Homo sapiens, UniProt Q9Y5N1, E19D) (assay: Chimeric human H3 receptor GTP binding assay (agonist-stimulated GTP-gamma35S binding, Example 7)). Conditions: not given.
T1 construct: made in house; host or cells: Sf9 insect cells (baculovirus infection); P2 membrane preparation
Type: biochemical
Text: This Example illustrates a representative assay for evaluating agonist-stimulated GTP-gamma^35S binding (“GTP binding”) activity. […] This agonist-stimulated GTP binding activity can also be used to detect partial agonism mediated by antagonist compounds. A compound analyzed in this assay is referred to herein as a “test compound.”
Four independent baculoviral stocks (one directing the expression of the chimeric human H3 receptor and three directing the expression of each of the three subunits of a heterotrimeric G-protein) are used to infect a culture of Sf9 cells as described above. P2 membranes are prepared as described above, and agonist-stimulated GTP binding on the P2 membranes is assessed using histamine (Sigma Chemical Co., St. Louis, Mo.) as agonist in order to ascertain that the receptor/G-protein-alpha-beta-gamma combination(s) yield a functional response as measured by GTP binding. P2 membranes are resuspended by Dounce homogenization (tight pestle) in GTP binding assay buffer (50 mM Tris pH 7.4, 120 mM NaCl, 5 mM MgCl2, 2 mM EGTA, 1 mg/ml BSA, 0.2 mg/ml bacitracin, 0.02 mg/ml aprotinin, 0.01 mg/ml saponin, 10 μM GDP) and added to assay tubes at a concentration of 35 μg protein/reaction tube. […] In competition experiments, non-radiolabeled test compounds are added to separate reactions at concentrations ranging from 10^−10 M to 10^−6 M along with 1 μM histamine to yield a final volume of 0.20 ml.
Neutral antagonists are antagonists that are substantially free of inherent agonist activity, and include those test compounds that reduce the histamine-stimulated GTP binding activity towards, but not below, baseline levels. In contrast, in the absence of added histamine, inverse agonists reduce the GTP binding activity of the receptor-containing membranes below baseline.
After a 60-min incubation at room temperature, reactions are terminated by vacuum filtration over WHATMAN GF/C filters (pre-soaked in wash buffer, 0.1% BSA) followed by washing with ice-cold wash buffer (50 mM Tris pH 7.4, 120 mM NaCl). The amount of receptor-bound (and thereby membrane-bound) GTP-gamma^35S is determined by measuring the filter-bound radioactivity, preferably by liquid scintillation spectrometry of the washed filters. […] Data is expressed as percent above basal (baseline). The results of GTP binding experiments are analyzed using SIGMAPLOT software (SPSS Inc., Chicago, Ill.).
IC50 values are calculated by non-linear regression analysis of dose-response curves using Kaleidograph (Synergy Software, Reading, Pa.).

T1 sequence (Q9Y5N1 with tags, fused parts or gaps E19D): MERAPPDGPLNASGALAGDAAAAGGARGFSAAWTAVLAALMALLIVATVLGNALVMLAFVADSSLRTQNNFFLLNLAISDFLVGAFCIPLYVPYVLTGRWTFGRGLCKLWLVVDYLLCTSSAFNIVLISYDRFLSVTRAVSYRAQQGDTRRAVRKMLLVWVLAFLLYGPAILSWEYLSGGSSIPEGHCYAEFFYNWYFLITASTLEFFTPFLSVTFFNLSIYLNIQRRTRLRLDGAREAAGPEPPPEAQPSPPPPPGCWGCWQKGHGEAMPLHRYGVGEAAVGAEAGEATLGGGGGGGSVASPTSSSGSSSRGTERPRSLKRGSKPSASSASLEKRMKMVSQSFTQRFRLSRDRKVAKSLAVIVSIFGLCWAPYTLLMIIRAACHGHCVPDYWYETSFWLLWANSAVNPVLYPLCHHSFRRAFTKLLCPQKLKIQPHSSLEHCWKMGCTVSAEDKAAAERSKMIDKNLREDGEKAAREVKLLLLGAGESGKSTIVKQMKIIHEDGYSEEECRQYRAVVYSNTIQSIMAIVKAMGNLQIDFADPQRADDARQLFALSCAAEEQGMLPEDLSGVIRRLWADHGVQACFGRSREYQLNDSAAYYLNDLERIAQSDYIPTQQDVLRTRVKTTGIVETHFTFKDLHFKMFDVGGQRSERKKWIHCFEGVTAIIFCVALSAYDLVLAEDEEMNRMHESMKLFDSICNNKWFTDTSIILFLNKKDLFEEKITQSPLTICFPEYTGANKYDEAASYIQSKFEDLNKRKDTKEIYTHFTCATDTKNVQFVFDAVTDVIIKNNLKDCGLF

Compound | pKi
CC(C)N1CCN(C(=O)CN2CCN(c3cccc(F)c3)CC2)CC1 [Compound 303, 1-(3-fluorophenyl)-4-[2-(4-isopropylpiperazin-1-yl)-2-oxoethyl]piperazine] | > 6.00
O=C(CN1CCN(c2ccc(F)c(C(F)(F)F)c2)CC1)N1CCN(C2CCCC2)CC1 [Compound 830, 1-cyclopentyl-4-({4-[4-fluoro-3-(trifluoromethyl)phenyl]piperazin-1-yl}acetyl)piperazine] | > 6.00

Same assay, conditions: Table II "Ki", symbol "*": Ki in the assay of Example 7; read-out: Ki

pKi | Compound
> 6.00 | O=C(CN1CCN(c2cnc(-c3ccc(Cl)cc3)cn2)CC1)N1CCN(C2CCC2)CC1 [Compound 904, 2-(4-chlorophenyl)-5-{4-[2-(4-cyclobutylpiperazin-1-yl)-2-oxoethyl]piperazin-1-yl}pyrazine]
> 6.00 | CCC(C)N1CCN(C(=O)CN2CCN(c3ccc(C)c(C)c3)CC2)CC1 (stereo not drawn) [Compound 871, 1-sec-butyl-4-{[4-(3,4-dimethylphenyl)piperazin-1-yl]acetyl}piperazine]

Same assay, conditions: Table II; assay of Example 7; "*" in Ki; read-out: Ki

Compound | pKi
C=CCN1CCN(C(=O)CN2CCN(c3ccc(OC)cc3)C(C)C2)CC1 (stereo not drawn) [Compound 1102, 4-[2-(4-allylpiperazin-1-yl)-2-oxoethyl]-1-(4-methoxyphenyl)-2-methylpiperazine] | > 6.00
CC(=O)c1ccc(N2CCN(CC(=O)N3CCN(C4CCC4)CC3)C(=O)C2)cc1 [Compound 1096, 4-(4-acetylphenyl)-1-[2-(4-cyclobutylpiperazin-1-yl)-2-oxoethyl]piperazin-2-one] | > 6.00
O=C(CN1CCN(c2ccc(-c3ccc(Cl)cc3)nn2)CC1)N1CCN(C2CCC2)CC1 [Compound 991, 3-(4-chlorophenyl)-6-{4-[2-(4-cyclobutylpiperazin-1-yl)-2-oxoethyl]piperazin-1-yl}pyridazine] | > 6.00

The remaining lines, values ahead:

pKi | Compound
> 6.00 | COCCN(C(=O)c1cccc(N2CCN(CC(=O)N3CCN(C4CCC4)CC3)CC2)c1)C(C)C [Compound 1070, 3-{4-[2-(4-cyclobutylpiperazin-1-yl)-2-oxoethyl]piperazin-1-yl}-N-isopropyl-N-(2-methoxyethyl)benzamide]
> 6.00 | CC1CN(C(=O)c2cccc(N3CCN(CC(=O)N4CCN(C5CCC5)CC4)CC3)c2)CC(C)O1 (stereo not drawn) [Compound 1092, 4-(3-{4-[2-(4-cyclobutylpiperazin-1-yl)-2-oxoethyl]piperazin-1-yl}benzoyl)-2,6-dimethylmorpholine]
> 6.00 | CCC(C)CNC(=O)c1ccc(N2CCN(CC(=O)N3CCN(C4CCC4)CC3)CC2)cc1 (stereo not drawn) [Compound 1131, 4-{4-[2-(4-cyclobutylpiperazin-1-yl)-2-oxoethyl]piperazin-1-yl}-N-(2-methylbutyl)benzamide]

Same assay, conditions: assay of Example 7; "*" in Ki of Table II; read-out: Ki

pKi | Compound
> 6.00 | COc1ccc(C(=O)NC2CCN(CC(=O)N3CCN(C4CCC4)CC3)C2)cc1 (stereo not drawn) [Compound 1237, N-{1-[2-(4-cyclobutylpiperazin-1-yl)-2-oxoethyl]pyrrolidin-3-yl}-4-methoxybenzamide]
> 6.00 | CCN(C(=O)c1ccc(N2CCN(CC(=O)N3CCN(C4CCC4)CC3)CC2)nc1)C1CCCCC1 [Compound 1171, 6-{4-[2-(4-cyclobutylpiperazin-1-yl)-2-oxoethyl]piperazin-1-yl}-N-cyclohexyl-N-ethylnicotinamide]
> 6.00 | O=C(NC1CCN(CC(=O)N2CCN(C3CCC3)CC2)C1)C1CC2CCC1C2 (stereo not drawn) [Compound 1255, N-{1-[2-(4-cyclobutylpiperazin-1-yl)-2-oxoethyl]pyrrolidin-3-yl}bicyclo[2.2.1]heptane-2-carboxamide]

Same assay, conditions: assay of Example 7; symbol * in column headed Ki of Table II; read-out: Ki

pKi | Compound
> 6.00 | O=C(CN1CCN(c2cccc(C(=O)N3CC[C@H]4CCCC[C@@H]4C3)c2)CC1)N1CCN(C2CCC2)CC1 [Compound 252, (4aR,8aS)-2-(3-{4-[2-(4-cyclobutylpiperazin-1-yl)-2-oxoethyl]piperazin-1-yl}benzoyl) decahydroisoquinoline]
> 6.00 | CC(=O)c1cnc(N2CCN(CC(=O)N3CCN(C4CCC4)CC3)CC2)nc1 [Compound 269, 1-(2-{4-[2-(4-cyclobutylpiperazin-1-yl)-2-oxoethyl]piperazin-1-yl}pyrimidin-5-yl)ethanone]
